Converted amounts (≈) assume the structure as drawn.
How the values were obtained:
[1] = molecular target: T1, Bifunctional epoxide hydrolase 2 (Homo sapiens, UniProt P34913); assay: Inhibition of soluble epoxide hydrolase (unknown origin)
T1 sequence (P34913 whole entry): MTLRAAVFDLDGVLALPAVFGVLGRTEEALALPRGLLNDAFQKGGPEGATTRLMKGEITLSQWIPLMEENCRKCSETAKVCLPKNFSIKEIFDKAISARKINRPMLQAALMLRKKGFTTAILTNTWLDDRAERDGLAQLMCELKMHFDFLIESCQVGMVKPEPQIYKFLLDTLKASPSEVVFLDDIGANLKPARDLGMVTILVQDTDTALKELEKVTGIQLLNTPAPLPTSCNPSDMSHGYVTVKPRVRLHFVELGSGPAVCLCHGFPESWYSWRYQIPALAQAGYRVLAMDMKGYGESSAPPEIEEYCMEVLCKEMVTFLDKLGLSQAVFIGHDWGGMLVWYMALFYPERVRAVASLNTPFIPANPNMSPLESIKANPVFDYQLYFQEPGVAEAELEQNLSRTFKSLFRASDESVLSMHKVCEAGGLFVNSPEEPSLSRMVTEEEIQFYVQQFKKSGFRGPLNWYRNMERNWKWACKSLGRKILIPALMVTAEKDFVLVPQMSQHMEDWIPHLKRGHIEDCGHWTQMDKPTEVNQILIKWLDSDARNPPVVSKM

[2] = Solubility of the compound in sodium phosphate buffer at pH 7.4 at 25 +/- 1 degC; type: physicochemical
[3] = molecular target: T1, Bifunctional epoxide hydrolase 2; assay: Inhibition of human recombinant soluble epoxide hydrolase using cyano(6-methoxy-naphthalen-2-yl)methyl-trans-[(3-phenyloxiran-2-yl)methyl]carbonate as substrate after 5 mins by fluorescence assay

Row | SMILES | IC50 [1] | solubility [2] | IC50 [3]
1 | O=C(NCC[C@H]1CN[C@@H](Cc2ccccc2)CN1)NC12CC3CC(CC(C3)C1)C2 | 1370 nM | – | –
2 | O=C(NC1CCN(C(=O)CCC(=O)N2CCNCC2)CC1)NC12CC3CC(CC(C3)C1)C2 | – | 8000 µg/mL (≈ 18000 µM) | 77.3 nM
3 | CC(=O)N1CCN(CCCOc2ccc(NC(=O)NC34CC5CC(CC(C5)C3)C4)c3cccnc23)CC1 | – | 130 µg/mL (≈ 257 µM) | 142 nM
4 | CC(C)(C)OC(=O)N1CCN(CCCOc2ccc(NC(=O)NC34CC5CC(CC(C5)C3)C4)c3cccnc23)CC1 | – | 150 µg/mL (≈ 266 µM) | 6.8 nM
5 | O=C(NC12CC3CC(CC(C3)C1)C2)N1CCNCC1 | – | – | 100000 nM
6 | CC(C)(C)OC(=O)N1CCN(C(=O)CCC(=O)N2CCC(NC(=O)NC34CC5CC(CC(C5)C3)C4)CC2)CC1 | – | 470 µg/mL (≈ 861 µM) | 18.8 nM
7 | CC(=O)N1CCN(C(=O)c2ccc(NC(=O)NC34CC5CC(CC(C5)C3)C4)cc2)CC1 | – | 530 µg/mL (≈ 1250 µM) | 9 nM
8 | CC(C)(C)OC(=O)N1CCN(C(=O)c2cccc(NC(=O)NC34CC5CC(CC(C5)C3)C4)c2)CC1 | – | 210 µg/mL (≈ 435 µM) | 7.3 nM
9 | CN1CCN(C(=O)NC23CC4CC(CC(C4)C2)C3)CC1 | – | – | 63.7 nM
10 | CC(C)(C)OC(=O)N1CCN(C(=O)c2ccc(NC(=O)NC34CC5CC(CC(C5)C3)C4)cc2)CC1 | – | 500 µg/mL (≈ 1040 µM) | 0.5 nM
11 | CC(C)(C)OC(=O)N1CCN(C(=O)NC23CC4CC(CC(C4)C2)C3)CC1 | – | – | 490 nM
12 | O=C(Nc1ccc(C(=O)N2CCNCC2)cc1)NC12CC3CC(CC(C3)C1)C2 | – | 1960 µg/mL (≈ 5120 µM) | 67.1 nM
13 | O=C(Nc1cccc(C(=O)N2CCNCC2)c1)NC12CC3CC(CC(C3)C1)C2 | – | 1150 µg/mL (≈ 3010 µM) | 133 nM
14 | CS(=O)(=O)N1CCN(CCCCOc2cccc(NC(=O)CC34CC5CC(CC(C5)C3)C4)c2)CC1 | – | 170 µg/mL (≈ 337 µM) | 0.5 nM
15 | CC(=O)N1CCN(C(=O)CCC(=O)N2CCC(NC(=O)NC34CC5CC(CC(C5)C3)C4)CC2)CC1 | – | – | 44.7 nM
16 | CS(=O)(=O)N1CCN(C(=O)c2ccc(NC(=O)NC34CC5CC(CC(C5)C3)C4)cc2)CC1 | – | 860 µg/mL (≈ 1870 µM) | 1 nM
17 | CS(=O)(=O)N1CCN(C(=O)c2cccc(NC(=O)NC34CC5CC(CC(C5)C3)C4)c2)CC1 | – | 130 µg/mL (≈ 282 µM) | 41.8 nM
18 | CC(=O)N1CCN(C(=O)NC23CC4CC(CC(C4)C2)C3)CC1 | – | – | 321 nM
19 | CC(C)(C)OC(=O)N1CCN(CCCCOc2cccc(NC(=O)CC34CC5CC(CC(C5)C3)C4)c2)CC1 | – | 180 µg/mL (≈ 342 µM) | 0.4 nM
20 | CC(=O)N1CCN(CCCCOc2cccc(NC(=O)CC34CC5CC(CC(C5)C3)C4)c2)CC1 | – | 160 µg/mL (≈ 342 µM) | 0.6 nM
21 | CC(=O)N1CCN(C(=O)c2cccc(NC(=O)NC34CC5CC(CC(C5)C3)C4)c2)CC1 | – | 890 µg/mL (≈ 2100 µM) | 46.3 nM
